Values quoted from earlier work, collected in patent US20210128727A1, “A pharmaceutical combination for use in the treatment of cancer” (Universitätsmedizin der Johannes Gutenberg-Universität Mainz, priority 2018, published 2021).

Biological target: T1, TLR-9 (Mus musculus, UniProt Q9EQU3)
T1 construct: host or cells: mice (in vivo, endogenous protein)
T1 sequence (Q9EQU3 26-1032): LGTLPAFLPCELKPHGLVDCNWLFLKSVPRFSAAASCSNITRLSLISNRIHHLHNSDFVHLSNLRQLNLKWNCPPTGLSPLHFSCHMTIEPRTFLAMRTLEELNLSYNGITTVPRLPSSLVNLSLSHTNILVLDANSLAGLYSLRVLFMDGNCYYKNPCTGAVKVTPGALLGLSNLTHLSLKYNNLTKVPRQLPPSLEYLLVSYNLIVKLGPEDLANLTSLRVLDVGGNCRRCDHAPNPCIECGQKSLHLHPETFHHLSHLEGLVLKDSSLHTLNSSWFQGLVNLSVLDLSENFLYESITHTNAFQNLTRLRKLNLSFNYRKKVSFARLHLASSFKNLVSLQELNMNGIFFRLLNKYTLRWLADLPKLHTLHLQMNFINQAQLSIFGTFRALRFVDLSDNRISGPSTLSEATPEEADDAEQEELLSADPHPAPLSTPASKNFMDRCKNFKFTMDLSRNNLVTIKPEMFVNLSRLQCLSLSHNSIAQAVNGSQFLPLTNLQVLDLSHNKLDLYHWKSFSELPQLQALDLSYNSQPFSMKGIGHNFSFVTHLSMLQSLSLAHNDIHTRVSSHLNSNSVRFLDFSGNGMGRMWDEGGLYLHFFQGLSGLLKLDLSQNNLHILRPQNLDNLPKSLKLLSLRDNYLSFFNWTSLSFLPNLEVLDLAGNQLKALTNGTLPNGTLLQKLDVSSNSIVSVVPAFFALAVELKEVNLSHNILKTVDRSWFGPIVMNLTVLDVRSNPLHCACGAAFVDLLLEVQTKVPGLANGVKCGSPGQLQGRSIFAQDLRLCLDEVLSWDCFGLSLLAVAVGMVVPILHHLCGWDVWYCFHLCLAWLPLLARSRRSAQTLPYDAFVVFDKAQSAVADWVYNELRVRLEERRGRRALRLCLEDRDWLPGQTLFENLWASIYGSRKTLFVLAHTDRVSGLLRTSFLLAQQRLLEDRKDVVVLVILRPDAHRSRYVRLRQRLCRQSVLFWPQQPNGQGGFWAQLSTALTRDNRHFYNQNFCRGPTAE
Conditions: mice

For “5′-TCCATGACGTTCCTGATGCT-3′: CpG oligodeoxynucleotide TLR9 agonist produced at Metabion International AG (DNA, all phosphorothioate, methylation of C not given here; listed as Mus musculus)”, the “reversal of regulatory T cell-mediated CD8 tolerance” value is given as “efficiently reverse regulatory T cell-mediated CD8 tolerance”.
